Experimental data reported in patent US11174245B2, “Benzimidazole compounds and derivatives as EGFR inhibitors” (Boehringer Ingelheim International GmbH, priority 2018, dated 2021).
Where two headings read alike, the source gives them in different places.

Key:
[1] = target: EGFR (d746-750 T790M C797S) (Homo sapiens (Human), UniProt P00533, C797S/DEL746-750/T790M); assay: Biochemical EGFR inhibition assay (TR-FRET, poly-GT substrate), EGFR d746-750 T790M C797S
Experimental: (§1) Biochemical EGFR Inhibition Assays
(§2) Initially, the inhibitory effect of compounds according to the invention is measured in biochemical assays which measure the phosphorylation activity of EGFR enzyme forms on poly-GT substrate in the presence of different concentrations of ATP (5 μM and 100 μM final assay concentration).
(§3) The following enzyme forms of EGFR are representative examples that can be used in these assays at the given concentrations:
(§4) For the chosen highest assay concentration of 100 μM, 150 nL of compound solution is transferred from a 10 mM DMSO compound stock solution. A series of eleven fivefold dilutions per compound is transferred to the assay plate, compound dilutions are tested in duplicates. DMSO is added as backfill to a total volume of 150 nL. The assay runs on a fully automated robotic system.
(§5) These biochemical EGFR enzyme form compound dose-response assays quantify the kinase activity via phosphorylation of a tagged poly-GT substrate. The results of the assay are provided as IC50 values.

[2] = target: EGFR (mutated) 695-1022, T790M, C797S, L858R (Homo sapiens (Human), UniProt P00533, C797S/L858R/T790M); assay: Biochemical EGFR inhibition assay (TR-FRET, poly-GT substrate), EGFR T790M C797S L858R
Experimental: as §1, §2, §3, §4, §5

EGFR wt = EGFR wt (Homo sapiens (Human), UniProt P00533); assay: Biochemical EGFR inhibition assay (TR-FRET, poly-GT substrate), EGFR wt
Experimental: as §1, §2, §3, §4, §5

[3] = target: EGFR del19 T790M C797S protein in Ba/F3 cells (Homo sapiens, UniProt P00533, C797S/DEL746-750/T790M); assay: pEGFR assay (AlphaScreen Surefire, EGFR Tyr1068 phosphorylation); format: cell-based
How it was run: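 Transduced Ba/F3 cells, puromycin-selected and grown IL-3 independent, were treated with compound at 60.000 cells/well for 4 h at 37° C. Lysis followed for 20 min at room temperature, and Tyr1068 phospho-EGFR in lysate was detected after 2 h dark incubation. Results are IC50 values.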

[4] = read-out: LR_TM_CS (100 μM ATP) IC50, 100 μM ATP
[5] = read-out: wt (100 μM ATP) IC50, 100 μM ATP
[6] = read-out: LR_TM_CS (5 μM ATP) IC50, 5 μM ATP
[7] = read-out: wt (5 μM ATP) IC50, 5 μM ATP

Sequence of EGFR del19 T790M C797S protein in Ba/F3 cells (P00533 with tags, fused parts or gaps C797S/DEL746-750/T790M limits assumed): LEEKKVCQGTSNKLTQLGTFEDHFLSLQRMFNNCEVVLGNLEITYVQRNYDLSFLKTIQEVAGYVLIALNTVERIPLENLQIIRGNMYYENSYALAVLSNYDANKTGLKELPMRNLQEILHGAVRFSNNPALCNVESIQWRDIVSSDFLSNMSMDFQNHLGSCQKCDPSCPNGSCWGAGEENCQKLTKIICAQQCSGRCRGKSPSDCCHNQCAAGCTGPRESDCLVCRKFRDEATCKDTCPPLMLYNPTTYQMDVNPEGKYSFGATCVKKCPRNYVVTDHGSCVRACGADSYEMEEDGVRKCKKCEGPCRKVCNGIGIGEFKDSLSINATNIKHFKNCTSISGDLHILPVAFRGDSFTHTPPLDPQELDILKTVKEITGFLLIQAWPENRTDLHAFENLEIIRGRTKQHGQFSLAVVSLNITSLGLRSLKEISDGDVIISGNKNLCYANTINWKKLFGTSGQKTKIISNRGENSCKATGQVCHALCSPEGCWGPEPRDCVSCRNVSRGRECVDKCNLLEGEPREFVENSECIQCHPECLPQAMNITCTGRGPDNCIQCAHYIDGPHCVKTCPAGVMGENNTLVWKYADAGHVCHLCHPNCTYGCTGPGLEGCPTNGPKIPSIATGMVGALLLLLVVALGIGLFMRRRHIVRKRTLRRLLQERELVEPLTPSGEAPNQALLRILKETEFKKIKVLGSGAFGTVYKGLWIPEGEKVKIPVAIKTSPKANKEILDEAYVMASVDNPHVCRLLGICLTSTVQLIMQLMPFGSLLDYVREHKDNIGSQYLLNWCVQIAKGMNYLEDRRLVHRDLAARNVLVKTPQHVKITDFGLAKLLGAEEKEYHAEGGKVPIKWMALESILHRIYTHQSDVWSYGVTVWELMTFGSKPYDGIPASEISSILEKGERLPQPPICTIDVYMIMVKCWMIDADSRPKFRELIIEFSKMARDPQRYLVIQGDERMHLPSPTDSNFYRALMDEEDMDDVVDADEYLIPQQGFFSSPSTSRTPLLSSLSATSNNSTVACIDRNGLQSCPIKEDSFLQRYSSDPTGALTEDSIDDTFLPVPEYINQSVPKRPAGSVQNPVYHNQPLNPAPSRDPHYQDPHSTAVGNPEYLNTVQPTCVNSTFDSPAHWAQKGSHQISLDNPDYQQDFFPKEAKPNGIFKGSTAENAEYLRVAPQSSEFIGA
Sequence of EGFR (mutated) 695-1022, T790M, C797S, L858R (P00533 695-1022 T790M/C797S/L858R): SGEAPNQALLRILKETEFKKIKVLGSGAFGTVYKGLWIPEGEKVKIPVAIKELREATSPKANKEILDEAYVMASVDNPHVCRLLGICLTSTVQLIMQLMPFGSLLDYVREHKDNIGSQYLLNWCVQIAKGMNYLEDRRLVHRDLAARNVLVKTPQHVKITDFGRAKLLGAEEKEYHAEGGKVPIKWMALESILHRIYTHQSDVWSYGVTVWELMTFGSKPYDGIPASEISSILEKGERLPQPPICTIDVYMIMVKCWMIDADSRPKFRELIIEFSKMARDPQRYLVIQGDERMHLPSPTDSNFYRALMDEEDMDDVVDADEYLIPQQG
Sequence of EGFR wt (P00533 25-1210): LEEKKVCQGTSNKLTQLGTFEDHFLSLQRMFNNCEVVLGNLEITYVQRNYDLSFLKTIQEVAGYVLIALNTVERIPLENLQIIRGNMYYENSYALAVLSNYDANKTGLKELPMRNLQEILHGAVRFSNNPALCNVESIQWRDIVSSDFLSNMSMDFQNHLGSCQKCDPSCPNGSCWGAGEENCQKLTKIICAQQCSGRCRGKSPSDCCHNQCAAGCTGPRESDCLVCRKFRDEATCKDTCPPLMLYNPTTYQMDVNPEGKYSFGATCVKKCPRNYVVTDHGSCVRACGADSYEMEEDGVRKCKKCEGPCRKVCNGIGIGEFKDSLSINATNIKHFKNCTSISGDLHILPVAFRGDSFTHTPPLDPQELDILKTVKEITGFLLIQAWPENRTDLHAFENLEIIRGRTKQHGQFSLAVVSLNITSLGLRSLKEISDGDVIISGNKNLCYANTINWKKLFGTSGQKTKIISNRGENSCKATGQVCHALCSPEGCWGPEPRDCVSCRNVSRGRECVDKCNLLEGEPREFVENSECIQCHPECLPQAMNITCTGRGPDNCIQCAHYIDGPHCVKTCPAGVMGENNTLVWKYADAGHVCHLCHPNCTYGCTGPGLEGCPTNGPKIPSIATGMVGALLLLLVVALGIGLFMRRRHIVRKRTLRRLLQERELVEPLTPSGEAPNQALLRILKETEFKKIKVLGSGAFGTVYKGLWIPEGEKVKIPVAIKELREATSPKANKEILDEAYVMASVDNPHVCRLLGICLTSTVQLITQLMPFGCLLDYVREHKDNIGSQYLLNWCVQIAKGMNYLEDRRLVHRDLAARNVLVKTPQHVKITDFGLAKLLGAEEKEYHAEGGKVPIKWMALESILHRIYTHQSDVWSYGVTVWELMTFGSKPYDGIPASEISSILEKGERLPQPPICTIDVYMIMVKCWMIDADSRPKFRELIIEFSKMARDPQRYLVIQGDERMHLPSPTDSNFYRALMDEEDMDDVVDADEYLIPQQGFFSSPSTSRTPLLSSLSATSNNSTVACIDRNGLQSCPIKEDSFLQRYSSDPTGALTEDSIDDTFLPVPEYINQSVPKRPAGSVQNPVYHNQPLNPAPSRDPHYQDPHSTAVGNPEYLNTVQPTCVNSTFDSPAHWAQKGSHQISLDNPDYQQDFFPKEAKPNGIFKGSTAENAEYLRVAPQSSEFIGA
Sequence of EGFR (d746-750 T790M C797S) (P00533 other isoform, or with tags, fused parts or gaps T790M/C797S/del 1-694/del 746-750 limits assumed): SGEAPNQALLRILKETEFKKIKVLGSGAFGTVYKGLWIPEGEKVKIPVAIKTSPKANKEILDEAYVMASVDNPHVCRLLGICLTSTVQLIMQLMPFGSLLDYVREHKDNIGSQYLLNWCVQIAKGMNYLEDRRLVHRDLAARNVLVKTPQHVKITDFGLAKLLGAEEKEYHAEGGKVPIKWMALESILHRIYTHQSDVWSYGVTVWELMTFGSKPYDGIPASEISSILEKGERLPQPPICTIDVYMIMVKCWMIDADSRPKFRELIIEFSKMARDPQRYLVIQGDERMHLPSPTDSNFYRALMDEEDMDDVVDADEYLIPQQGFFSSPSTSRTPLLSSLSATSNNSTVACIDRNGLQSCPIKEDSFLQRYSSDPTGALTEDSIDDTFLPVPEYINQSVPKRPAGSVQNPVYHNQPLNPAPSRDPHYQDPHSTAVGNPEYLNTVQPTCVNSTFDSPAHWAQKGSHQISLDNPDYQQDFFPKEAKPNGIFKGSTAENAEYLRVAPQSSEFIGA

SMILES | IC50 ([1]; 100 μM ATP) [nM] | IC50 [2, 4] [nM] | IC50 (EGFR wt; [5]) [nM] | IC50 [3] [nM] | IC50 ([1]; 5 μM ATP) [nM] | IC50 [2, 6] [nM] | IC50 (EGFR wt; [7]) [nM]
Cc1ccc2c(c1)[nH]/c(=N\C(=O)c1ccnc(-c3cnn(C)c3)c1)n2CC(C)(C)O [I-033] | 8.6 | 91.6 | 9510 | 9 | – | – | –
Cn1cc(-c2cc(C(=O)/N=c3\[nH]c4ccccc4n3[C@H]3CC[C@@H](O)CC3)cc(C#N)n2)cn1 [I-136] | – | 31.6 | > 100000 | 2 | 0.2 | 0.8 | 164
CC(=O)N1CCC(c2ccc3c(c2)[nH]/c(=N\C(=O)c2ccnc(-c4cnn(C)c4C)c2)n3CC(C)(C)O)CC1 [I-026] | 4.4 | 34.5 | 1150 | 7 | – | – | –
CC(C)(O)Cn1/c(=N/C(=O)c2ccnc(-n3cnc4ccccc43)c2)[nH]c2ccccc21 [I-039] | 36 | 508 | > 100000 | 9 | – | – | –
O=C(/N=c1\[nH]c2ccccc2n1C1CCCC1)c1ccnc(-c2cccnc2)c1 [I-002] | 4.6 | 67.4 | 2510 | 9 | – | – | –
CN1CCC(c2ccc3c(c2)[nH]/c(=N\C(=O)c2ccnc(-c4cnn5cccnc45)c2)n3CC(C)(C)O)CC1 [I-032] | 0.6 | 3 | 366 | 1 | – | – | –
CN1CCC(c2ccc3c(c2)[nH]/c(=N\C(=O)c2ccnc(-n4cnc5cccc(F)c54)c2)n3CC(C)(C)O)CC1 [I-030] | 3.4 | 25.5 | 1960 | 6 | – | – | –
CN1CCC(c2ccc3c(c2)[nH]/c(=N\C(=O)c2ccnc(-c4cnn(C)c4)c2)n3C2CCCC2)CC1 [I-010] | 2.9 | 17.4 | 5110 | 20 | – | – | –
Cn1cc(-c2cc(C(=O)/N=c3\[nH]c4ccccc4n3C3CCC3)ccn2)cn1 [I-019] | 26.3 | 102 | 4370 | 37 | – | – | –
Cc1cc(C(=O)/N=c2\[nH]c3ccc(CN4CCOCC4)cc3n2C2CCCCC2)cc(-c2cnn(C)c2)n1 [I-221] | – | – | – | 5 | 0.4 | 2 | 2050
Cc1cc(C(=O)/N=c2\[nH]c3ccc(CN4CCN(C)CC4)cc3n2C2CCCCC2)cc(-c2cnn(C)c2)n1 [I-224] | – | – | – | 3 | 0.2 | 0.5 | 267
CC(=O)N1CCC(c2ccc3c(c2)[nH]/c(=N\C(=O)c2ccnc(-c4cnn(C)c4)c2)n3[C@H]2CC[C@@H](O)CC2)CC1 [I-219] | – | – | – | 2 | 0.1 | 0.4 | 25.8
COC(=O)Cc1ccc2c(c1)[nH]/c(=N\C(=O)c1ccnc(-c3cccnc3)c1)n2CC(C)(C)O [I-054] | 4.1 | 104 | 79700 | 7 | – | – | –
CC(=O)N1CCC(c2ccc3c(c2)[nH]/c(=N\C(=O)c2ccnc(-c4cnn(C)c4)c2)n3C2CCCC2)CC1 [I-008] | 5 | 39.6 | > 4000 | 6 | – | 1.5 | 185
CCCn1/c(=N/C(=O)c2ccnc(-c3cnn(C)c3)c2)[nH]c2ccccc21 [I-014] | 48.8 | 146 | > 100000 | 94 | – | – | –
COc1ccc(F)cc1-c1cc(C(=O)/N=c2\[nH]c3ccccc3n2[C@H]2CC[C@@H](O)CC2)ccn1 [I-157] | – | – | – | 5 | – | 4.6 | 70.4
Cc1ccc2c(c1)[nH]/c(=N\C(=O)c1ccnc(-c3cccc(CN(C)C)c3)c1)n2[C@H]1CC[C@@H](O)CC1 [I-111] | – | 10.3 | 7040 | 4 | – | – | –
Cn1cc(-c2cc(C(=O)/N=c3\[nH]c4ccccc4n3CC(C)(C)O)ccn2)cn1 [I-001] | 71.7 | – | – | 43 | – | – | –

Second part, the compound after the results:

IC50 ([1]; 100 μM ATP) [nM] | IC50 [2, 4] [nM] | IC50 (EGFR wt; [5]) [nM] | IC50 [3] [nM] | IC50 ([1]; 5 μM ATP) [nM] | IC50 [2, 6] [nM] | IC50 (EGFR wt; [7]) [nM] | SMILES
14.2 | 105 | 236 | 11 | – | – | – | Cc1nn(C)cc1-c1cc(C(=O)/N=c2\[nH]c3ccccc3n2C2CCCC2)ccn1 [I-005]
1.2 | – | – | 1 | – | – | – | COc1ccncc1-c1cc(C(=O)/N=c2\[nH]c3cc(C4CCN(C(C)=O)CC4)ccc3n2CC(C)(C)O)ccn1 [I-031]
27.9 | 113 | 7890 | 28 | – | – | – | Cc1c(-c2cc(C(=O)/N=c3\[nH]c4cc(N5CCN(C)CC5)ccc4n3CC(C)(C)O)ccn2)cnn1C [I-025]
49 | 184 | 12400 | 30 | – | – | – | Cn1cc(-c2cc(C(=O)/N=c3\[nH]c4ccccc4n3[C@H]3CC[C@@H](O)C3)ccn2)cn1 [I-009]
18.4 | 76.5 | 3770 | 13 | – | – | – | Cn1cc(-c2cc(C(=O)/N=c3\[nH]c4ccccc4n3[C@H]3CC[C@H](O)C3)ccn2)cn1 [I-013]
9.9 | 61.7 | 4080 | 29 | – | – | – | Cn1cc(-c2cc(C(=O)/N=c3\[nH]c4ccccc4n3C3CCCC3)ccn2)cn1 [I-003]
– | – | – | 59 | 2 | 32.7 | 2860 | Cn1cc(-c2cc(C(=O)/N=c3\[nH]c4ccccc4n3C3CCC[S+]([O-])C3)ccn2)cn1 (stereo not drawn) [I-220]
2.4 | 4.2 | 591 | 1 | – | – | – | COc1ccncc1-c1cc(C(=O)/N=c2\[nH]c3cc(C4CCN(C)CC4)ccc3n2CC(C)(C)O)ccn1 [I-028]
14.2 | 171 | > 100000 | 15 | – | – | – | Cn1cc(-c2cc(C(=O)/N=c3\[nH]c4ccccc4n3CCC(C)(C)O)ccn2)cn1 [I-037]
– | 104 | > 100000 | 3 | 0.4 | 1.9 | 2180 | Cc1cc(C(=O)/N=c2\[nH]c3ccccc3n2[C@H]2CC[C@@H](O)CC2)cc(-c2cnn(C)c2)n1 [I-143]
– | – | – | 2 | 0.2 | 0.4 | 162 | Cc1cc(C(=O)/N=c2\[nH]c3ccc(C4CCN(C)CC4)cc3n2[C@H]2CC[C@@H](O)CC2)cc(-c2cnn(C)c2)n1 [I-225]
61.8 | 169 | 5620 | 71 | – | – | – | CN1CCN(c2ccc3c(c2)[nH]/c(=N\C(=O)c2ccnc(-c4cnn(C)c4)c2)n3CC(C)(C)O)CC1 [I-022]
22.8 | 196 | 3950 | 21 | – | – | – | Cc1ccc2[nH]/c(=N\C(=O)c3ccnc(-c4cnn(C)c4)c3)n(CC(C)(C)O)c2c1 [I-034]
– | – | – | 15 | – | 6.8 | 1520 | Cn1cc(-c2cc(C(=O)/N=c3\[nH]c4cc(CC#N)ccc4n3CC(C)(C)O)ccn2)cn1 [I-199]
– | – | – | 2 | – | 2 | 312 | O=C(/N=c1\[nH]c2ccccc2n1[C@H]1CC[C@@H](O)CC1)c1ccnc(-c2ccccc2F)c1 [I-141]
– | – | – | 7 | – | 4.6 | 995 | COc1ccncc1-c1cc(C(=O)/N=c2\[nH]c3ccccc3n2[C@H]2CC[C@@H](O)CC2)cc(C#N)n1 [I-167]
– | – | – | 44 | – | 5.4 | 7470 | Cc1cc(C(=O)/N=c2\[nH]c3cc(CN4CCN(C)CC4)ccc3n2[C@H]2CCC[C@H](O)C2)cc(-c2cnn(C)c2)n1 [I-208]
– | – | – | 6 | – | 2.4 | 205 | Cc1cccc(-c2cc(C(=O)/N=c3\[nH]c4ccccc4n3[C@H]3CC[C@@H](O)CC3)ccn2)c1 [I-161]
– | 10.3 | 1010 | 3 | – | 0.6 | 19.3 | COc1ccccc1-c1cc(C(=O)/N=c2\[nH]c3ccccc3n2[C@H]2CC[C@@H](O)CC2)ccn1 [I-108]
– | – | – | 5 | – | 13.3 | 3150 | O=C(/N=c1\[nH]c2ccccc2n1[C@H]1CC[C@@H](O)CC1)c1ccnc(-c2coc3cccnc23)c1 [I-156]
– | – | – | 16 | – | 61.1 | 14700 | CC(C)(O)Cn1/c(=N/C(=O)c2ccnc(-c3cccn4cnnc34)c2)[nH]c2ccccc21 [I-91]
– | 95.2 | 21100 | 5 | – | – | – | COCCCNc1ccc2c(c1)[nH]/c(=N\C(=O)c1ccnc(-c3cccnc3)c1)n2CC(C)(C)O [I-78]
– | – | – | 13 | – | 3.1 | 777 | Cn1cc(-c2cc(C(=O)/N=c3\[nH]c4ccccc4n3[C@H]3CCC[C@@H](O)C3)ccn2)cn1 [I-112]
– | – | – | 10 | – | 13.6 | 557 | COc1c(F)cccc1-c1cc(C(=O)/N=c2\[nH]c3ccccc3n2[C@H]2CC[C@@H](O)CC2)ccn1 [I-175]
